Source: US20250195521A1 (Revolution Medicines, Inc., priority 2020, published 2025)

Legend:
[1] = tested on: Capan-1 cells (K-Ras G12V); test: CellTiter-Glo cell viability, Capan-1; assay type: cell-based, human; settings: Homo sapiens, CAPAN-1, 120 h, K-Ras G12V, 5-day treatment; read-out: Capan-1 Cell Viability IC50
Method in brief: (§1)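 Five-day treatment of K-Ras mutant cells with directly dispensed compound; ATP-based luminescence endpoint. Percent of DMSO signal fit to four-parameter logistic curve.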

[2] = tested on: NCI-H358 cells (K-Ras G12C); test: CellTiter-Glo cell viability, NCI-H358; assay type: cell-based, human; settings: Homo sapiens, NCI-H358, 120 h, K-Ras G12C, 5-day treatment; read-out: H358 Cell Viability IC50
Method in brief: as §1

NRAS Q61R = NRAS Q61R (Homo sapiens (Human), UniProt P01111+P62937, Q61R); test: Ras-Raf disruption/FRET/MOA assay (BRAF RBD, Cyclophilin A); assay type: biochemical
Chain of NRAS Q61R (P01111 whole entry Q61R): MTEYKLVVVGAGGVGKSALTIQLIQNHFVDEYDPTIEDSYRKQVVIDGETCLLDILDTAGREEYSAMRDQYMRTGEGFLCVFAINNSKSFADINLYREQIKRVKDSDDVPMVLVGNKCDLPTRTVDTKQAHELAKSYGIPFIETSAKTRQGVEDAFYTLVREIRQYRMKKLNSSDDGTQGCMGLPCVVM
Chain of NRAS Q61R (P62937 whole entry): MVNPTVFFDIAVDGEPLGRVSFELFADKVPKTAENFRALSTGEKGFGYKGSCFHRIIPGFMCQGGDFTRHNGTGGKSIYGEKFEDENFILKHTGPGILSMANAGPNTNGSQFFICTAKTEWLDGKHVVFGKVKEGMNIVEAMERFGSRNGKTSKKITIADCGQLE
Method in brief: (§2)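 25 μM tagless Cyclophilin A, 12.5 nM His6-Ras-GMPPNP and 50 nM GST-BRAF RBD in HEPES pH 7.3 buffer with 5 mM MgCl2, with compound (10-point 3-fold series from 30 μM final) for 3 h at 25 °C. Anti-His Eu and anti-GST APC then added for 1.5 h. IC50 from TR-FRET ratio decrease versus DMSO.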

KRAS G12C = KRAS G12C (Homo sapiens (Human), UniProt P01116+P62937, G12C); test: as above; assay type: biochemical; settings: read-out: KRAS G12C FRET IC50
Chain of KRAS G12C (P01116-2 other isoform, or with tags, fused parts or gaps G12C): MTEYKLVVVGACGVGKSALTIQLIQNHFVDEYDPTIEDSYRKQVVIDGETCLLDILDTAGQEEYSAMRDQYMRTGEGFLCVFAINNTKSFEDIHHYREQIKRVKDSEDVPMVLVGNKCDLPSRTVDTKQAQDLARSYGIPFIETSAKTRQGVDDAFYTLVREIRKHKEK
Chain of KRAS G12C (P62937 whole entry): as the sequence (P62937 whole entry) above
Method in brief: (§3)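 His6-K-Ras-GMPPNP (12.5 nM), GST-BRAF RBD (50 nM) and tagless Cyclophilin A (25 μM) were combined in 25 mM HEPES pH 7.3 with 100 mM NaCl, 5 mM MgCl2, 0.1% BSA and 0.002% Tween20, with compound as a 10-point 3-fold series from 30 μM final, then incubated 3 h at 25° C.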

KRAS G12D = KRAS G12D (Homo sapiens (Human), UniProt P01116+P62937, G12D); test: as above; assay type: biochemical; settings: read-out: KRAS G12D FRET IC50
Chain of KRAS G12D (P01116 other isoform, or with tags, fused parts or gaps G12D): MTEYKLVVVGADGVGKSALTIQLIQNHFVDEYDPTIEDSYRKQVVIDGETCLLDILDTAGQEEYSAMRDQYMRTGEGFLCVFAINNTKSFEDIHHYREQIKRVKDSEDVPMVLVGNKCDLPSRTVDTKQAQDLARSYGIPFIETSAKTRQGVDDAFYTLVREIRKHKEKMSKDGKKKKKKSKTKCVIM
Chain of KRAS G12D (P62937 whole entry): as the sequence (P62937 whole entry) above
Method in brief: as §3

NRAS G12C = NRAS G12C (Homo sapiens (Human), UniProt P01111+P62937, G12C); test: as above; assay type: biochemical; settings: read-out: NRAS G12C FRET data IC50
Chain of NRAS G12C (P01111 whole entry G12C): as the sequence (P01111 whole entry Q61R) above, with G12C, R61Q counted along it
Chain of NRAS G12C (P62937 whole entry): as the sequence (P62937 whole entry) above
Method in brief: as §2

NRAS WT = NRAS WT (Homo sapiens (Human), UniProt P01111+P62937); test: as above; assay type: biochemical
Chain of NRAS WT (P01111 whole entry): as the sequence (P01111 whole entry Q61R) above, with R61Q counted along it
Chain of NRAS WT (P62937 whole entry): as the sequence (P62937 whole entry) above
Method in brief: as §2

KRAS G13D = KRAS G13D (Homo sapiens (Human), UniProt P01116+P62937, G13D); test: as above; assay type: biochemical; settings: read-out: KRAS G13D FRET data IC50
Chain of KRAS G13D (P01116 other isoform, or with tags, fused parts or gaps G13D): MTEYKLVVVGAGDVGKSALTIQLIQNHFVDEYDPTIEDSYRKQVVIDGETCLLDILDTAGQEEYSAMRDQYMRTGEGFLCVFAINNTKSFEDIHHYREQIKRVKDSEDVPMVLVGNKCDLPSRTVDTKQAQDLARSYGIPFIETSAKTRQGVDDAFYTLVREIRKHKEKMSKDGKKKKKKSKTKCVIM
Chain of KRAS G13D (P62937 whole entry): as the sequence (P62937 whole entry) above
Method in brief: as §3

KRAS WT = KRAS WT (Homo sapiens (Human), UniProt P01116+P62937); test: as above; assay type: biochemical; settings: read-out: KRAS WT FRET data IC50
Chain of KRAS WT (P01116 other isoform, or with tags, fused parts or gaps): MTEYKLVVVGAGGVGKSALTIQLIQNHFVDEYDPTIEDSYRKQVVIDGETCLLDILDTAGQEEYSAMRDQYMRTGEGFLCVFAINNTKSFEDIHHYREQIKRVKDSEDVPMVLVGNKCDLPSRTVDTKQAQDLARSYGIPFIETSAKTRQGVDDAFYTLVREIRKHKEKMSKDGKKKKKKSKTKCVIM
Chain of KRAS WT (P62937 whole entry): as the sequence (P62937 whole entry) above
Method in brief: as §3

KRAS G13C = KRAS G13C (Homo sapiens (Human), UniProt P01116+P62937, G13C); test: as above; assay type: biochemical; settings: read-out: KRAS G13C FRET IC50
Chain of KRAS G13C (P01116 other isoform, or with tags, fused parts or gaps G13C): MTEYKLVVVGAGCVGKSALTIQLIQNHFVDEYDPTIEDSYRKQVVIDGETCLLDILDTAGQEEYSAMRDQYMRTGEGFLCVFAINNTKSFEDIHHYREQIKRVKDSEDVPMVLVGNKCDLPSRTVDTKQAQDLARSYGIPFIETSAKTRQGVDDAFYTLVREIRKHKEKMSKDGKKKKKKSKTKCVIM
Chain of KRAS G13C (P62937 whole entry): as the sequence (P62937 whole entry) above
Method in brief: as §3

KRAS G12S = KRAS G12S (Homo sapiens (Human), UniProt P01116+P62937, G12S); test: as above; assay type: biochemical; settings: read-out: KRAS G12S FRET IC50
Chain of KRAS G12S (P01116 other isoform, or with tags, fused parts or gaps G12S): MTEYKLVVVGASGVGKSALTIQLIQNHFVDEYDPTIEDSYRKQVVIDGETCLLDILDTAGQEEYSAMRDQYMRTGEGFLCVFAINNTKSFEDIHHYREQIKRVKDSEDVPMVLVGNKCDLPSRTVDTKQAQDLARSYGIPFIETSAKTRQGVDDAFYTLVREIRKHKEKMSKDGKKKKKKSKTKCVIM
Chain of KRAS G12S (P62937 whole entry): as the sequence (P62937 whole entry) above
Method in brief: as §3

KRAS Q61H = KRAS Q61H (Homo sapiens (Human), UniProt P01116+P62937, Q61H); test: as above; assay type: biochemical
Chain of KRAS Q61H (P01116 other isoform, or with tags, fused parts or gaps Q61H): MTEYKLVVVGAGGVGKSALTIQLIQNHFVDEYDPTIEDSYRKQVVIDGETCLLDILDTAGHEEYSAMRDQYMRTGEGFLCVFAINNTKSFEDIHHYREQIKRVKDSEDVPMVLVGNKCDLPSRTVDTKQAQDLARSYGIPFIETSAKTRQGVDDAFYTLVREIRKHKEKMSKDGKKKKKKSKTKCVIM
Chain of KRAS Q61H (P62937 whole entry): as the sequence (P62937 whole entry) above
Method in brief: as §3

KRAS G12V = KRAS G12V (Homo sapiens (Human), UniProt P01116+P62937, G12V); test: as above; assay type: biochemical; settings: read-out: KRAS G12V FRET IC50
Chain of KRAS G12V (P01116 other isoform, or with tags, fused parts or gaps G12V): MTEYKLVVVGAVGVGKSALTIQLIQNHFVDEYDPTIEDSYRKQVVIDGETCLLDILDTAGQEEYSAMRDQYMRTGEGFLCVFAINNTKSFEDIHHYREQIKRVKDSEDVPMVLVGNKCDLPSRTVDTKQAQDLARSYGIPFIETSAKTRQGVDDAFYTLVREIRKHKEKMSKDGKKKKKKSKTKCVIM
Chain of KRAS G12V (P62937 whole entry): as the sequence (P62937 whole entry) above
Method in brief: as §3

[3] = tested on: K-Ras G12C (NCI-H358 cells); test: Potency assay: pERK in NCI-H358 cells; assay type: cell-based, human; settings: Homo sapiens; NCI-H358 cells, 4 hours; read-out: pERK EC50 (H358 KRAS G12C)
Method in brief: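 Cells plated the day before were exposed for 4 h at 37° C, 5% CO2 to a 10-point, 3-fold DMSO dilution series (10 mM top stock), in duplicate. Phospho-ERK was read by AlphaLISA SureFire Ultra or by In-Cell Western with DRAQ5 DNA stain, and IC50 came from a 4-parameter sigmoidal fit.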

Row | Compound | IC50 [2] | IC50 (NRAS Q61R) | IC50 (KRAS G12C) | IC50 (KRAS G12D) | IC50 (NRAS G12C) | IC50 (NRAS WT) | IC50 (KRAS G13D) | IC50 (KRAS WT) | IC50 (KRAS G13C) | IC50 (KRAS G12S) | IC50 (KRAS Q61H) | IC50 (KRAS G12V) | EC50 [3] | IC50 [1]
1 | CCn1c(-c2cccnc2[C@H](C)OC)c2c3cc(ccc31)-c1csc(n1)C[C@H](NC(=O)[C@H](C(C)C)N(C)C(=O)N1CC[C@H](O)C1)C(=O)N1CCC[C@H](N1)C(=O)OCC(C)(C)C2 [Compound A401] | 10 to 100 nM | 100 to 1000 nM | 10 to 100 nM | 100 to 1000 nM | 10 to 100 nM | 100 to 1000 nM | 100 to 1000 nM | 100 to 1000 nM | 100 to 1000 nM | 100 to 1000 nM | 10 to 100 nM | 100 to 1000 nM |  | 10 to 100 nM
2 | CCn1c(-c2cccnc2[C@H](C)OC)c2c3cc(ccc31)-c1cc(O)cc(c1)C[C@H](NC(=O)[C@H](C(C)C)N(C)C(=O)[C@H]1CCC(=O)O1)C(=O)N1CCC[C@H](N1)C(=O)OCC(C)(C)C2 [Compound A405] | 1000 to 10000 nM | 100 to 1000 nM | 10 to 100 nM | 100 to 1000 nM | 10 to 100 nM | 10 to 100 nM | 10 to 100 nM | 10 to 100 nM | 10 to 100 nM | 10 to 100 nM | 10 to 100 nM | 10 to 100 nM |  | 1000 to 10000 nM
3 | CCn1c(-c2cccnc2[C@H](C)OC)c2c3cc(ccc31)-c1csc(n1)C[C@H](NC(=O)[C@H](C(C)C)N(C)C(=O)N1C[C@@H]3OCCN(C)[C@H]3C1)C(=O)N1CCC[C@H](N1)C(=O)OCC(C)(C)C2 [Compound A445] | 10 to 100 nM | 100 to 1000 nM | 100 to 1000 nM | 1000 to 10000 nM | 100 to 1000 nM | 100 to 1000 nM | 100 to 1000 nM | 100 to 1000 nM | 100 to 1000 nM | 100 to 1000 nM | 100 to 1000 nM | 100 to 1000 nM | < 5 µM | 10 to 100 nM
4 | CCn1c(-c2cccnc2[C@H](C)OC)c2c3cc(ccc31)-c1csc(n1)C[C@H](NC(=O)[C@H](C(C)C)N(C)C(=O)N1CC3(CC(N(C)C(C)C)C3)C1)C(=O)N1CCC[C@H](N1)C(=O)OCC(C)(C)C2 [Compound A485] | 10 to 100 nM | 100 to 1000 nM | 100 to 1000 nM | 100 to 1000 nM | 100 to 1000 nM | 100 to 1000 nM | 100 to 1000 nM | 100 to 1000 nM | 100 to 1000 nM | 100 to 1000 nM | 10 to 100 nM | 100 to 1000 nM |  | 10 to 100 nM

The next lines start with results.

Row | IC50 [2] | IC50 (NRAS Q61R) | IC50 (KRAS G12C) | IC50 (KRAS G12D) | IC50 (NRAS G12C) | IC50 (NRAS WT) | IC50 (KRAS G13D) | IC50 (KRAS WT) | IC50 (KRAS G13C) | IC50 (KRAS G12S) | IC50 (KRAS Q61H) | IC50 (KRAS G12V) | EC50 [3] | Compound | IC50 [1]
5 | 10 to 100 nM | 100 to 1000 nM | 10 to 100 nM | 100 to 1000 nM | 10 to 100 nM | 100 to 1000 nM | 100 to 1000 nM | 100 to 1000 nM | 100 to 1000 nM | 100 to 1000 nM | 10 to 100 nM | 100 to 1000 nM |  | CCn1c(-c2cccnc2[C@H](C)OC)c2c3cc(ccc31)-c1csc(n1)C[C@H](NC(=O)[C@H](C(C)C)N(C)C(=O)N(C)C1COC1)C(=O)N1CCC[C@H](N1)C(=O)OCC(C)(C)C2 [Compound A334] | 10 to 100 nM
6 | 10 to 100 nM | 100 to 1000 nM | 10 to 100 nM | 100 to 1000 nM | 10 to 100 nM | 100 to 1000 nM | 100 to 1000 nM | 100 to 1000 nM | 100 to 1000 nM | 100 to 1000 nM | 10 to 100 nM | 100 to 1000 nM | < 5 µM | CCn1c(-c2cccnc2[C@H](C)OC)c2c3cc(ccc31)-c1csc(n1)C[C@H](NC(=O)[C@H](C(C)C)N(C)C(=O)N1CC(S(C)(=O)=O)C1)C(=O)N1CCC[C@H](N1)C(=O)OCC(C)(C)C2 [Compound A383] | 10 to 100 nM
